The values that follow are results of earlier work, collected in US20200337300A1, “GREASE-LIKE GEL FOR REPELLING INSECTS AND PREVENTING UNDESIRABLE BEHAVIOR IN HOOFED ANIMALS” (Pacific Tech Industries, Inc., priority 2010, published 2020).

The conditions of data set [1]: for solubility in organic solvents: most organic solvents.
The conditions of data set [2]: pungency of the pure capsaicinoid.

On to `C=CCN=C=S` [Allyl isothiocyanate], for which, in data set [1], the “solubility in organic solvents” value was “soluble in most organic solvents” and the solubility in water result is recorded as “slightly soluble in water”.
Regarding `COc1cc(CNC(=O)CCCC/C=C/C(C)C)ccc1O` [Capsaicin, 8-methyl-N-vanillyl-6-nonenamide], in data set [2], the Scoville heat units is recorded as 16,000,000 Scoville heat units.
`COc1cc(CNC(=O)CCCCC/C=C/C(C)C)ccc1O` [Homocapsaicin]: the Scoville heat units in data set [2] was 8,600,000 Scoville heat units.
For `COc1cc(CNC(=O)CCCCCCCC(C)C)ccc1O` [Homodihydrocapsaicin], in data set [2], the Scoville heat units was 8,600,000 Scoville heat units.
As for `C=CCS[S+]([O-])CC=C` (stereo not shown) [allicin], in data set [1], the “solubility in organic solvents” value is given as “soluble in most organic solvents” and the solubility in water entry is “slightly soluble in water”.
